Tests used:
TRAF3 = TRAF3 protein (western blot) and mRNA (real time RT-PCR) levels in PBMCs from ESRD patients treated or not with paricalcitol; type: in vivo, human; conditions: PBMCs of paricalcitol-treated ESRD patients on hemodialysis
Protocol: (§1) Intracellular protein and mRNA levels were measured in PBMCs from ESRD patients on hemodialysis. Inclusion criteria were as follows: age >45 years; male sex; informed consent; and absence of active inflammatory, infectious, or malignant diseases at the initiation or during the study. This study was approved by the IIS-Fundación Jiménez Diaz Ethics Committee. Patients were enrolled after providing written informed consent. PBMCs were separated from whole blood samples (30 ml into EDTA tubes) by a density gradient centrifugation method using Ficoll density gradient centrifugation. In total, 50x10^6 of PBMCs were obtained from 30 ml of whole blood and 6x10^6 PBMCs were used to isolate protein, RNA and nuclear/cytosolic protein levels using the NE-PER Reagent (Pierce) following the manufacturer's instructions.
For western blot, cell (25 µg/lane) and kidney (100-150 µg/lane) protein extracts were separated on 6%-12% polyacrylamide-SDS gels under reducing conditions. […] Autoradiographs were scanned using the Gel Doc™ EZ imager and analyzed with the Image Lab 3.0 software (BioRad).
Total RNA was isolated from cells and mouse kidney samples with Trizol (Invitrogen). […] The mRNA copy numbers were calculated for each sample by the instrument software using Ct value. Results are expressed in copy numbers, calculated relative to unstimulated cells or control mice, after normalization against 18S.

CIAP1-TRAF3 complexes = assay: TRAF3 immunoprecipitation (ubiquitin-Lys-48, CIAP1) in PBMCs from ESRD patients; type: in vivo, human
Protocol: as §1
Cells growing in tissue culture dish plates, were lysed in 300-500 µl Triton-NP-40 lysis buffer [50 mmol/L Tris-HCl pH 8, 150 mmol/L NaCl, 1 mmol/L phenylmethylsulphonylfluoride, 1% NP-40/IGEPAL, and a phosphatase-inhibitor cocktail (Set II, Calbiochem)], scraped off the dish and incubated 1 hour to 4°C with shaking. Cell lysates were precleared by incubating with 10 µl protein A-agarose bead slurries (0.5 mL agarose/2 mL phosphate-buffered saline) for 30 min at 4°C, and then centrifuged three times for 5 minutes at 2500 rpm, to wash supernatants. […]

NF-κB 1 pathway = assay: Canonical NF-κB1 activation in TWEAK-stimulated PBMCs from healthy donors; type: cell-based, Human; conditions: 12 µM paricalcitol, TWEAK 100 ng/ml, phosphorylated p65

C[C@H](/C=C/[C@H](C)C(C)(C)O)[C@H]1CC[C@H]2/C(=C/C=C3C[C@@H](O)C[C@H](O)C3)CCC[C@]12C [paricalcitol]
TRAF3 mRNA levels (TRAF3; real time RT-PCR): no changes
TRAF3 protein levels (TRAF3; western blot, vs healthy controls): restored to values in the range of healthy controls
TRAF3 ubiquitination and CIAP1-TRAF3 interaction (CIAP1-TRAF3 complexes; PBMCs of paricalcitol-treated ESRD patients, TRAF3 immunoprecipitation): significantly lowering to values in the range of healthy controls
CIAP-1 levels (CIAP1-TRAF3 complexes; whole protein extracts of PBMCs, paricalcitol-treated ESRD patients): close to control values
canonical NF-κB 1 pathway (NF-κB 1 pathway): without modulating

From EP3748362A1, “IN VITRO METHOD FOR DETECTING RENAL DISEASE” (Fundacion Instituto De Investigacion Sanitaria Fundacion …, priority 2019, dated 2020)
